33 molecules from patent publication US8846737B2, “Compound” (Sterix Limited, priority 2009, dated 2014) can be followed below.

In test [1] the target is T1, Aromatase (Homo sapiens, UniProt P11511).
T1 construct: host or cells: JEG3 choriocarcinoma cells, intact monolayers
T1 sequence (P11511 1-503): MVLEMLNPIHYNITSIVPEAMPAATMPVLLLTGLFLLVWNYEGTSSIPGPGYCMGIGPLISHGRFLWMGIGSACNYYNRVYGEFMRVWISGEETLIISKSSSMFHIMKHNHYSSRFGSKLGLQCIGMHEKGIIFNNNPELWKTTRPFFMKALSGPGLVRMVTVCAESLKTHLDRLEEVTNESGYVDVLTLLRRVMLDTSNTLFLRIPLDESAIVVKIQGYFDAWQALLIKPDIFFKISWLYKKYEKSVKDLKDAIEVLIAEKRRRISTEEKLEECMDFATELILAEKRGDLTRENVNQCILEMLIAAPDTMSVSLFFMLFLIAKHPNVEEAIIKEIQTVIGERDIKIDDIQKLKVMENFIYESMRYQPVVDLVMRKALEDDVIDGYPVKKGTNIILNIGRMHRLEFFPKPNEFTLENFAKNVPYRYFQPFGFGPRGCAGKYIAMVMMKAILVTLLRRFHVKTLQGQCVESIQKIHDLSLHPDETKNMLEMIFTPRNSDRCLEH
Description: Aromatase activity in JEG3 cells (Protocol 6). The conditions noted are these: intact JEG3 cells, [1β-3H]androstenedione, 30 min. Type of test: cell-based. The procedure:
Assay for Determining Aromatase Activity Using JEG3 Cells
Aromatase activity is measured in JEG3 choriocarcinoma cells, obtained from the ATCC. […] During the aromatase reaction, ^3H2O is liberated which can be quantified using a liquid scintillation spectrometer. […] The number of cell nuclei per flask is determined using a Coulter Counter after treating the cell monolayers with Zaponin.
Aromatase inhibition was measured in accordance with Protocol 6.

For test [2], the target named is T2, Steroid sulphatase (STS) (Homo sapiens, UniProt P08842).
T2 construct: host or cells: JEG3 choriocarcinoma cells, intact monolayers
T2 sequence (P08842 22-583): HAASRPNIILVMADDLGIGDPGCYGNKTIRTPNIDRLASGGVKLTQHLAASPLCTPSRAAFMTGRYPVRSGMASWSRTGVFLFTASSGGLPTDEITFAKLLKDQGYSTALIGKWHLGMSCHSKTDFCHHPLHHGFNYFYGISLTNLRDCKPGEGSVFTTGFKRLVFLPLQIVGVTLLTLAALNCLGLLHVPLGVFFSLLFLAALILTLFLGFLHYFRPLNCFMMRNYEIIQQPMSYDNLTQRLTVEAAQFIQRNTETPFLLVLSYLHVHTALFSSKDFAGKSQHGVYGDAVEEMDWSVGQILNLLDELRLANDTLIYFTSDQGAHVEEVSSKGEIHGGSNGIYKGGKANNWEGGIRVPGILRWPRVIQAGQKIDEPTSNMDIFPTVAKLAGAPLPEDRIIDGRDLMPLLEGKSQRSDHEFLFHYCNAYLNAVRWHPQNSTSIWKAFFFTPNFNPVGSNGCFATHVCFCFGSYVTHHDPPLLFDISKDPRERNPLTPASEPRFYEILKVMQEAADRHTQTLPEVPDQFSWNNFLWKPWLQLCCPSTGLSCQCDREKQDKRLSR
Description: Inhibition of steroid sulphatase activity in JEG3 cells (Protocol 1). Type of test: cell-based. The conditions noted are these: intact JEG3 cells, [6,7-3H]oestrone-3-sulphate, 3-4 hours. On the procedure:
Assay for Determining STS Activity Using Cancer Cells
Inhibition of Steroid Sulphatase Activity in JEG3 Cells
Steroid sulphatase activity is measured in vitro using intact JEG3 choriocarcinoma cells.
Cells are maintained in Minimal Essential Medium (MEM) containing 20 mM HEPES, 5% foetal bovine serum, 2 mM glutamine, non-essential amino acids and 0.075% sodium bicarbonate. Up to 30 replicate 25 cm^2 tissue culture flasks are seeded with approximately 1×10^5 cells/flask using the above medium Cells are grown to 80% confluency and the medium is changed every third day.
Intact monolayers of JEG3 cells in triplicate 25 cm^2 tissue culture flasks are washed with Earle's Balanced Salt Solution (EBSS) and incubated for 3-4 hours at 37° C. with 5 pmol (7×10^5 dpm) [6, 7-3H]oestrone-3-sulphate (specific activity 60 Ci/mmol) in serum-free MEM (2.5 ml) together with oestrone-3-sulphamate (11 concentrations: 0; 1fM; 0.01 pM; 0.1 pM, 1 pM; 0.01 nM; 0.1 nM; 0.01 mM; 0.1 mM; 1 mM). After incubation each flask is cooled and the medium (1 ml) is pipetted into separate tubes containing [14C]oestrone (7×10^3 dpm) (specific activity 97 Ci/mmol). The mixture is shaken thoroughly for 30 seconds with toluene (5 ml) Experiments have shown that >90% [14C]oestrone and <0 1% [3H]oestrone-3-sulphate is removed from the aqueous phase by this treatment A portion (2 ml) of the organic phase is removed, evaporated and the 3H and 14C content of the residue determined by scintillation spectrometry The mass of oestrone-3-sulphate hydrolysed was calculated from the 3H counts obtained (corrected for the volumes of the medium and organic phase used, and for recovery of [14C] oestrone added) and the specific activity of the substrate Each batch of experiments includes incubations of microsomes prepared from a sulphatase-positive human placenta (positive control) and flasks without cells (to assess apparent non-enzymatic hydrolysis of the substrate). The number of cell nuclei per flask is determined using a Coulter Counter after treating the cell monolayers with Zaponin One flask in each batch is used to assess cell membrane status and viability using the Trypan Blue exclusion method (Phillips, H J. (1973) In: Tissue culture and applications, [eds: Kruse, D. F. & Patterson, M. K]; pp 406-408; Academic Press, New York)
Results for steroid sulphatase activity are expressed as the mean±1S.D. of the total product (oestrone+oestradiol) formed during the incubation period (3-4 hours) calculated for […] and, for values showing statistical significance, as a percentage reduction (inhibition) over incubations containing no oestrone-3-sulphamate. Unpaired Student's t-test was used to test the statistical significance of results
Sterioid sulphatase inhibition was measured in accordance with Protocol 1

For orientation: IC50 means the concentration that gives 50% inhibition. Read a low IC50 as higher potency. In test [1], `N#Cc1ccc(N(Cc2ccc(O)cc2)n2cnnc2)cc1-c1ccccc1` [CAB06021, 5-((4-Hydroxybenzyl)(4H-1,2,4-triazol-4-yl)amino)biphenyl-2-carbonitrile] returned an IC50 of less than 0.1 nM.
As for `N#Cc1ccc(Nn2cnnc2)cc1-c1ccccc1` [CAB06022, 5-(4H-1,2,4-Triazol-4-ylamino)biphenyl-2-carbonitrile], half-maximal inhibition in test [1] (IC50) was put at 0.39 ± 0.09 nM.
Take `N#Cc1ccc(N(Cc2ccc(OS(N)(=O)=O)cc2)n2cnnc2)cc1-c1ccccc1` [CAB06025, 4-(((6-Cyanobiphenyl-3-yl)(4H-1,2,4-triazol-4-yl)amino)methyl)phenyl sulfamate]: the concentration for half-maximal inhibition (IC50) in test [2] is 17 ± 2 nM; in test [1], 0.14 ± 0.01 nM.
As to `N#Cc1ccc(N(Cc2ccc(O)c(Br)c2)n2cnnc2)cc1-c1ccccc1` [CAB06026, 5-((3-Bromo-4-hydroxybenzyl)(4H-1,2,4-triazol-4-yl)amino)biphenyl-2-carbonitrile], the IC50 in test [1] turned out to be 3.6 ± 0.4 nM.
For the molecule `N#Cc1ccc(N(Cc2ccc(O)c(F)c2)n2cnnc2)cc1-c1ccccc1` [CAB06043, 5-((3-Fluoro-4-hydroxybenzyl)(4H-1,2,4-triazol-4-yl)amino)biphenyl-2-carbonitrile], in test [1], the IC50 was 1.6 ± 0.6 nM.
Turning to `N#Cc1ccc(N(Cc2ccc(OS(N)(=O)=O)c(F)c2)n2cnnc2)cc1-c1ccccc1` [CAB06044, 4-(((6-Cyanobiphenyl-3-yl)(4H-1,2,4-triazol-4-yl)amino)methyl)-2-fluorophenyl sulfamate], the IC50 in test [2] stood at 2.3 ± 0.9 nM; in test [1] it was 0.15 ± 0.03 nM.
For `N#Cc1ccc(N(Cc2ccc(OS(N)(=O)=O)c(Br)c2)n2cnnc2)cc1-c1ccccc1` [CAB06045, 2-Bromo-4-(((6-cyanobiphenyl-3-yl)(4H-1,2,4-triazol-4-yl)amino)methyl)phenyl sulfamate], the figures for the IC50 in test [2] and in test [1] were 0.13 ± 0.01 nM and 0.018 ± 0.01 nM, respectively.
Consider `COc1ccc(-c2cc(Nn3cnnc3)ccc2C#N)cc1` [CAB06046, 5-(4H-1,2,4-Triazol-4-ylamino)-4′-methoxybiphenyl-2-carbonitrile], for which 0.26 ± 0.12 nM corresponded to half-maximal inhibition in test [1] (IC50).
As to `N#Cc1ccc(N(Cc2ccc(OS(N)(=O)=O)c(Cl)c2)n2cnnc2)cc1-c1ccccc1` [CAB06049, 2-Chloro-4-(((6-cyanobiphenyl-3-yl)(4H-1,2,4-triazol-4-yl)amino)methyl)phenyl sulfamate], the figures for the half-maximal inhibitory concentration (IC50) in test [2] and in test [1] were 0.83 ± 0.15 nM and 0.015 ± 0.005 nM, respectively.
For the molecule `N#Cc1ccc(N(Cc2ccccc2)n2cnnc2)cc1-c1ccc(O)cc1` [CAB06052, 5-(Benzyl-[1,2,4]triazol-4-yl-amino)-4′-hydroxy-biphenyl-2-carbonitrile], the IC50 in test [1] worked out at 0.33 ± 0.01 nM.
As for `N#Cc1ccc(N(Cc2ccccc2)n2cnnc2)cc1-c1ccc(OS(N)(=O)=O)cc1` [CAB06054, 5′-(Benzyl(4H-1,2,4-triazol-4-yl)amino)-2′-cyanobiphenyl-4-yl sulfamate], the figures for the IC50 in test [2] and in test [1] were 2900 ± 180 nM and 0.1 ± 0.02 nM, respectively.
As to `N#Cc1ccc(N(Cc2ccc(Br)cc2)n2cnnc2)cc1-c1ccc(OS(N)(=O)=O)cc1` [CAB06059, 5′-((4-Bromobenzyl)(4H-1,2,4-triazol-4-yl)amino)-2′-cyanobiphenyl-4-yl sulfamate], the IC50 in test [2] worked out at 2900 ± 100 nM; in test [1], 0.05 ± 0.01 nM.
With `COc1ccc(-c2cc(N(Cc3ccc(OS(N)(=O)=O)cc3)n3cnnc3)ccc2C#N)cc1` [CAB06077], the IC50 worked out at 22 ± 6 nM in test [2] and 0.015 ± 0.001 nM in test [1].
For `N#Cc1ccc(N(Cc2ccc(OS(N)(=O)=O)cc2)n2cnnc2)cc1-c1ccc(F)cc1` [CAB06078, 4-(((6-Cyano-4′-fluorobiphenyl-3-yl)(4H-1,2,4-triazol-4-yl)amino)methyl)phenyl sulfamate], the IC50 was found to be 55 ± 6 nM in test [2] and 0.47 ± 0.18 nM in test [1].
On the same counts, the results for `N#Cc1ccc(-c2cc(N(Cc3ccc(OS(N)(=O)=O)cc3)n3cnnc3)ccc2C#N)cc1` [CAB06088, 4-(((4′,6-Dicyanobiphenyl-3-yl)(4H-1,2,4-triazol-4-yl)amino)methyl)phenyl sulfamate] are 240 ± 60 nM and 0.75 ± 0.18 nM.
Consider `N#Cc1ccc(N(Cc2ccc(Br)cc2)n2cnnc2)cc1-c1ccccc1` [Compound 1], for which the IC50 in test [1] was less than 0.1 nM.
Take `N#Cc1ccc(N(Cc2ccc(Br)cc2)n2cnnc2)c(-c2ccccc2)c1` [Compound 2]: in test [1], half-maximal inhibition (IC50) required 960 ± 53 nM.
Regarding `N#Cc1ccc(N(Cc2ccc(OS(N)(=O)=O)cc2)n2cnnc2)cc1-c1ccccc1` [Compound 3], the IC50 in test [2] is 3 ± 0.5 nM; in test [1], 0.25 ± 0.03 nM.
In test [1], `N#Cc1ccc(N(Cc2ccc(O)cc2)n2cnnc2)cc1Cc1ccccc1` [Compound 12] returned an IC50 of less than 0.1 nM.
As to `N#Cc1ccc(N(Cc2ccc(OS(N)(=O)=O)cc2)n2cnnc2)cc1N1CCOCC1` [Compound 21], inhibition in test [1] was half-maximal at 44 ± 5 nM (IC50).
As to `CN1CCN(c2cc(N(Cc3ccc(O)cc3)n3cnnc3)ccc2C#N)CC1` [Compound 22], in test [1], inhibition was half-maximal at 13.8 ± 4.51 nM (IC50). This IC50 lies about 3.2-fold lower than the previous one.
In the case of `N#Cc1ccc(N(CCc2c(F)cc(O)cc2F)n2cnnc2)cc1` [Compound 24], in test [1], the IC50 came out at 0.14 ± 0.03 nM.
As to `N#Cc1ccc(N(CCc2c(F)cc(OS(N)(=O)=O)cc2F)n2cnnc2)cc1` [Compound 25], the midpoint of inhibition in test [2], the IC50, lay at 485 ± 50.7 nM.
As to `N#Cc1ccc(N(Cc2ccc(OS(N)(=O)=O)cc2)n2cnnc2)c2ccccc12` [Compound 27], in test [1], the IC50 was 200 ± 5 nM.
For `N#Cc1ccc(N(Cc2ccc(O)cc2F)n2cnnc2)cc1-c1ccccc1` [Compound 30], the half-inhibitory concentration (IC50) in test [1] amounted to 0.35 ± 0.06 nM. Compared with the last molecule, the IC50 is about 570-fold lower.
Molecule `N#Cc1ccc(N(Cc2ccc(O)c(F)c2F)n2cnnc2)cc1-c1ccccc1` [Compound 33] registered an IC50 in test [1] of 1 ± 0.3 nM.
The same measure, in the same setting: with `COc1ccc(-c2cc(N(Cc3c(F)cc(O)cc3F)n3cnnc3)ccc2C#N)cc1` [Compound 35] the figure was less than 0.1 nM.
Take `N#Cc1ccc(C(c2ccc(O)cc2)n2cncn2)cc1-c1ccccc1` (stereo not shown) [Compound 37]: the IC50 in test [1] was 0.23 ± 0.04 nM.
Consider `N#Cc1ccc(N(Cc2ccc(O)cc2)n2cnnc2)cc1CN1CCCC1` [Compound 40], for which the midpoint of inhibition in test [1], the IC50, lay at 8 nM.
The molecule `COc1ccc(Cc2cc(N(Cc3ccc(O)cc3)n3cnnc3)ccc2C#N)cc1` [Compound 44] yielded an IC50 in test [1] of 3.1 ± 0.4 nM.
`N#Cc1ccc(N(Cc2c(F)cc(O)cc2F)n2cnnc2)cc1-c1ccc(F)cc1` [Compound 46] had an IC50 in test [1] of 4.1 ± 0.2 nM.
Still for that read-out and setting: the same measure for `N#Cc1ccc(N(Cc2ccc(O)cc2)n2cnnc2)cc1-c1ccncc1` [Compound 50]: 4.03 ± 0.29 nM; for `N#Cc1ccc(N(Cc2ccc(O)cc2)n2cnnc2)cc1Oc1ccccc1` [Compound 56]: 1.82 ± 0.03 nM.
